Reference: ChEMBL document CHEMBL5634155, “Design and synthesis of pyrazole derivatives against neutrophilic inflammation” (Eur J Med Chem, 2023)

Tests used:
Neutrophil [1] = assay: Inhibition of fMLF/CB-induced human Neutrophil activation assessed as reduction in superoxide anion generation preincubated with compound for 2 mins prior to CB induction for 3 mins followed by fMLF addition by spectrophotometric analysis; assay type: functional, cell-based
Neutrophil [2] = assay: Inhibition of fMLF/CB-induced human Neutrophil activation assessed as reduction in superoxide anion generation at 10 uM preincubated with compound for 2 mins prior to CB induction for 3 mins followed by fMLF addition by spectrophotometric analysis relative to control; assay type: functional; settings: 5 min
Neutrophil [3] = assay: Inhibition of fMLF/CB-induced human Neutrophil activation assessed as reduction in elastase release using MeO-Suc-Ala-Ala-Pro-Val-pnitroanilide as substrate incubated for 5 mins; assay type: functional, cell-based
Neutrophil [4] = assay: Inhibition of fMLF/CB-induced human Neutrophil activation assessed as reduction in elastase release at 10 uM using MeO-Suc-Ala-Ala-Pro-Val-pnitroanilide as substrate incubated for 5 mins relative to control; assay type: functional

SMILES	IC50 (Neutrophil [1]) [nM]	inhibition at 10 µM (Neutrophil [2]) [%]	IC50 (Neutrophil [3]) [µM]	inhibition at 10 µM (Neutrophil [4]) [%]
COc1ccccc1C(=O)n1nc(-c2ccc(C=O)o2)c2ccccc21	> 10000	10.4	> 10	31.8
c1ccc(Cn2nc(-c3cccs3)cc2-c2ccccc2)cc1	74.5	70	> 10	39.1
O=C(c1ccccc1F)n1nc(-c2ccco2)c2ccccc21	340	69.5	> 10	-9.57
c1ccc(-c2cn(CC3CCCCC3)nc2-c2ccco2)cc1	833000	104	1.19	109
c1ccc(-c2cc(-c3ccccc3)n(CC3CCCCC3)n2)cc1	> 10000	40.8	> 10	8.16
COc1ccc(-c2cc(-c3ccccc3)n(Cc3cccc(F)c3)n2)cc1OC	> 10000	44.5	> 10	38.5
Fc1cccc(Cn2nc(-c3cccs3)cc2-c2ccccc2)c1	76.2	73.3	> 10	35.5
COc1ccccc1C(=O)n1nc(-c2ccco2)c2ccccc21	> 10000	14.5	> 10	-0.2
COc1cccc(Cn2cc(-c3ccccc3)c(-c3ccccc3)n2)c1	164000	68.6	> 10	25
c1ccc(Cn2nc(-c3ccccc3)cc2-c2ccccc2)cc1	2830	63.6	> 10	36.8
CCCCCCCn1nc(-c2ccco2)c2ccccc21	> 10000	8.38	> 10	44.2
COc1cccc(Cn2nc(-c3cccs3)cc2-c2ccccc2)c1	1760	63.3	> 10	32.8
O=[N+]([O-])c1cccc2c(-c3ccc(CO)o3)nn(Cc3ccccc3)c12	1810	82.6	7.58	68.3
Fc1cccc(Cn2nc(-c3ccccc3)cc2-c2ccccc2)c1	> 10000	48.3	> 10	17.6
COc1ccc(-c2nn(Cc3ccccc3)cc2-c2ccccc2)cc1OC	218000	68.2	> 10	7.02
c1ccc(Cn2cc(-c3ccccc3)c(-c3ccco3)n2)cc1	–	94.2	> 10	101
O=C(O)c1ccc(-c2nn(CC3CCCCC3)c3ccccc23)o1	4930	73.2	> 10	43.6
CCCCCCCn1cc(-c2ccccc2)c(-c2ccccc2)n1	> 10000	0.72	> 10	16.9
CCCCCCCn1nc(-c2ccccc2)cc1-c1ccccc1	> 10000	4.58	> 10	1.6
CCCCCCCn1cc(-c2ccccc2)c(-c2cccs2)n1	> 10000	-5.72	> 10	21
COc1ccc(-c2nn(CC3CCCCC3)cc2-c2ccccc2)cc1OC	> 10000	43.9	> 10	19.1
c1ccc(-c2cc(-c3cccs3)nn2CC2CCCCC2)cc1	> 10000	39	> 10	15.2
COc1ccc(-c2nn(Cc3cccc(F)c3)cc2-c2ccccc2)cc1OC	> 10000	33.7	> 10	16

SMILES	IC50 (Neutrophil [1]) [nM]	inhibition at 10 µM (Neutrophil [2]) [%]	IC50 (Neutrophil [3]) [µM]	inhibition at 10 µM (Neutrophil [4]) [%]
CCCCCCCn1nc(-c2ccc(C(=O)O)o2)c2ccccc21	2030	98.7	1.92	112
c1ccc(Cn2cc(-c3ccccc3)c(-c3cccs3)n2)cc1	145000	65.7	> 10	23.5
c1ccc(Cn2cc(-c3ccccc3)c(-c3ccccc3)n2)cc1	201000	61.6	> 10	6.79
CCCCCCCn1nc(-c2cccs2)cc1-c1ccccc1	> 10000	16.6	> 10	21.1
Brc1ccccc1Cn1nc(-c2ccco2)c2ccccc21	1470	93.1	4.84	78
OC(c1ccc(-c2nn(Cc3ccccc3F)c3ccccc23)o1)C(F)(F)F (stereo not given)	> 10000	35.7	> 10	10.3
CCCCCCCn1nc(-c2ccco2)cc1-c1ccccc1	694	101	2.13	115
c1ccc(Cn2nc(-c3ccco3)c3ccccc32)cc1	2320	71.8	> 10	20.4
CCCCCCCn1nc(-c2ccc(C=O)o2)c2ccccc21	> 10000	5.88	2.56	67.1
c1ccc(Cn2nc(-c3ccco3)cc2-c2ccccc2)cc1	75.1	73	> 10	46
Fc1ccccc1Cn1nc(-c2ccco2)c2ccccc21	1050	100	2.11	94.5
CCCCCCCn1cc(-c2ccccc2)c(-c2ccco2)n1	–	102	1.08	110
O=C(c1ccccc1)n1nc(-c2ccco2)c2ccccc21	170	59.7	–	–
c1coc(-c2nn(CC3CCCCC3)c3ccccc23)c1	180	87.8	0.26	73.9
Fc1cccc(Cn2cc(-c3ccccc3)c(-c3cccs3)n2)c1	1790	63.7	> 10	33.6
O=Cc1ccc(-c2nn(Cc3ccccc3Br)c3ccccc23)o1	190	67.4	2.27	106
Fc1cccc(Cn2nc(-c3ccco3)cc2-c2ccccc2)c1	45.9	94.6	3.57	76.6
c1ccc(-c2cn(CC3CCCCC3)nc2-c2ccccc2)cc1	> 10000	6.73	> 10	8.93
CCC(=O)c1ccc(-c2nn(Cc3ccccc3F)c3ccccc23)o1	180	106	2.54	93.4
O=Cc1ccc(-c2nn(Cc3ccccc3)c3ccccc23)o1	1000	75.2	3.68	89.7
COc1cccc(Cn2nc(-c3ccccc3)cc2-c2ccccc2)c1	> 10000	8.5	> 10	1.65
Fc1cccc(Cn2cc(-c3ccccc3)c(-c3ccco3)n2)c1	–	90.2	2.05	100
